Test results taken from PubChem BioAssay AID328 (DTP/NCI, 2004).
Several values for one entry are separate records, joined by “and”; a condition that tells them apart may be missing. Equal values may be shown once. Toxic doses and inconclusive results are not listed.

Test system: BDF1 mice, P388 leukemia ip, median survival T/C
Assay: NCI In Vivo Anticancer Drug Screen. Data for tumor model P388 Leukemia (intraperitoneal) in B6D2F1 (BDF1) mice
Conditions: endpoint: median survival time, higher = longer survival
Method in brief: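 Transplantable tumour in mice; compound vs vehicle dosing; survival scored; ratio of treated to control reported.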

[1] = dose: 12.5 mg/kg/injection, schedule: Q01DX009 (ip), vehicle: saline with Tween-80
[2] = dose: 25.0 mg/kg/injection, schedule: Q01DX009 (ip), vehicle: saline with Tween-80
[3] = dose: 50.0 mg/kg/injection, schedule: Q01DX009 (ip), vehicle: saline with Tween-80
[4] = dose: 100.0 mg/kg/injection, schedule: Q01DX009 (ip), vehicle: saline with Tween-80
[5] = dose: 100.0 mg/kg/injection, schedule: Q04DX003 (ip), vehicle: saline with Tween-80
[6] = dose: 200.0 mg/kg/injection, schedule: Q01DX009 (ip), vehicle: saline with Tween-80
[7] = dose: 200.0 mg/kg/injection, schedule: Q04DX003 (ip), vehicle: saline with Tween-80
[8] = dose: 50.0 mg/kg/injection, schedule: Q01DX009 (ip), vehicle: saline
[9] = dose: 100.0 mg/kg/injection, schedule: Q01DX009 (ip), vehicle: saline
[10] = dose: 100.0 mg/kg/injection, schedule: Q04DX003 (ip), vehicle: saline
[11] = dose: 200.0 mg/kg/injection, schedule: Q01DX009 (ip), vehicle: saline
[12] = dose: 200.0 mg/kg/injection, schedule: Q04DX003 (ip), vehicle: saline
[13] = dose: 400.0 mg/kg/injection, schedule: Q04DX003 (ip), vehicle: saline

SMILES: c1ccc2c(c1)ccc1cc3cc(NCCCCNc4ccc5nc6c(ccc7ccccc76)cc5c4)ccc3nc12
- T/C (dose: 1.56 mg/kg/injection, schedule: Q01DX009 (ip), vehicle: saline with Tween-80): 108 % of control
- T/C (dose: 3.13 mg/kg/injection, schedule: Q01DX009 (ip), vehicle: saline with Tween-80): 105 % of control
- T/C (dose: 6.25 mg/kg/injection, schedule: Q01DX009 (ip), vehicle: saline with Tween-80): 108 % of control

SMILES: CC(C)C(=O)OCC1OC(n2cnc3c(=S)nc(N)[nH]c32)C(OC(=O)C(C)C)C1OC(=O)C(C)C (stereo not drawn)
- T/C (dose: 25.0 mg/kg/injection, schedule: Q01DX009 (ip), vehicle: Klucel (hydroxypropylcellulose) (HPC)): 92 % of control

SMILES: Nc1ccc(C2=NN(c3ccccc3)CN(c3ccccc3)N2)cc1
- T/C (dose: 100.0 mg/kg/injection, schedule: Q01DX001 (ip), vehicle: saline with Tween-80): 101 % of control
- T/C (dose: 200.0 mg/kg/injection, schedule: Q01DX001 (ip), vehicle: saline with Tween-80): 107 % of control
- T/C (dose: 400.0 mg/kg/injection, schedule: Q01DX001 (ip), vehicle: saline with Tween-80): 102 % of control

SMILES: C/C=C(\CC)C(=O)NC(N)=O
- T/C (dose: 100.0 mg/kg/injection, schedule: Q01DX009 (ip), vehicle: Klucel (hydroxypropylcellulose) (HPC)): 95 % of control
- T/C (dose: 200.0 mg/kg/injection, schedule: Q01DX009 (ip), vehicle: Klucel (hydroxypropylcellulose) (HPC)): 100 % of control
- T/C (dose: 400.0 mg/kg/injection, schedule: Q01DX009 (ip), vehicle: Klucel (hydroxypropylcellulose) (HPC)): 122 % of control

SMILES: c1cc2ccsc2cn1
- T/C [1]: 103 % of control
- T/C [2]: 92 % of control
- T/C (dose: 25.0 mg/kg/injection, schedule: Q04DX003 (ip), vehicle: saline with Tween-80): 95 % of control
- T/C [3]: 92 % of control
- T/C (dose: 50.0 mg/kg/injection, schedule: Q04DX003 (ip), vehicle: saline with Tween-80): 91 % of control

SMILES: C=CCOc1ccccc1OC
- T/C [2]: 100 % of control
- T/C [3]: 113 % of control
- T/C [4]: 107 % of control and 113 % of control
- T/C [5]: 100 % of control
- T/C [6]: 100 % of control
- T/C [7]: 113 % of control

SMILES: Cc1cc(-c2ccc(Cl)cc2)[n+](C)n1C
- T/C [1]: 100 % of control
- T/C [2]: 111 % of control

SMILES: CCCCOC(=O)c1ccc(OCCOc2ccc(C(C)(C)CC(C)(C)C)cc2)c(NC(=O)CC(=O)c2cccc(N)c2)c1
- T/C (dose: 6.25 mg/kg/injection, schedule: Q04DX003 (ip), vehicle: saline sonified): 100 % of control
- T/C (dose: 12.5 mg/kg/injection, schedule: Q04DX003 (ip), vehicle: saline sonified): 91 % of control

SMILES: CCOC(=O)CCC(C(=O)OCC)C(=O)OCC
- T/C [4]: 107 % of control
- T/C [5]: 91 % of control
- T/C [6]: 100 % of control
- T/C [7]: 100 % of control
- T/C (dose: 400.0 mg/kg/injection, schedule: Q01DX009 (ip), vehicle: saline with Tween-80): 92 % of control
- T/C (dose: 400.0 mg/kg/injection, schedule: Q04DX003 (ip), vehicle: saline with Tween-80): 95 % of control

SMILES: CC(C)(N)COS(=O)(=O)O
- T/C [8]: 100 % of control
- T/C [9]: 90 % of control and 100 % of control
- T/C [10]: 100 % of control
- T/C [11]: 95 % of control
- T/C [12]: 100 % of control
- T/C (dose: 400.0 mg/kg/injection, schedule: Q01DX009 (ip), vehicle: saline): 100 % of control
- T/C [13]: 100 % of control

SMILES: [O-]/C(CCCl)=N\[n+]1c2c(nc3ccccc31)-c1cccc3cccc-2c13
- T/C (dose: 12.5 mg/kg/injection, schedule: Q01DX001 (ip), vehicle: Klucel (hydroxypropylcellulose) (HPC)): 102 % of control
- T/C (dose: 25.0 mg/kg/injection, schedule: Q01DX001 (ip), vehicle: Klucel (hydroxypropylcellulose) (HPC)): 100 % of control
- T/C (dose: 50.0 mg/kg/injection, schedule: Q01DX001 (ip), vehicle: Klucel (hydroxypropylcellulose) (HPC)): 102 % of control

SMILES: NC(=O)c1cn(C2OC(CO)C(O)C2O)c2ncn3ccnc3c12 (stereo not drawn)
- T/C (dose: 6.25 mg/kg/injection, schedule: Q04DX003 (ip), vehicle: saline): 118 % of control
- T/C (dose: 25.0 mg/kg/injection, schedule: Q04DX003 (ip), vehicle: saline): 115 % of control
- T/C [10]: 118 % of control

SMILES: COc1ccc2nc3cc(Cl)ccc3c(NCCNCCNCCNc3c4ccc(Cl)cc4nc4ccc(OC)cc34)c2c1
- T/C [1]: 151 % of control
- T/C [2]: 171 % of control
- T/C [3]: 161 % of control

SMILES: CC(=O)Nc1ccc(C)c([N+](=O)[O-])c1
- T/C [8]: 92 % of control
- T/C [9]: 97 % of control
- T/C [10]: 99 % of control
- T/C [11]: 118 % of control
- T/C [12]: 100 % of control
- T/C [13]: 90 % of control
